# In patent US20070066651A1, “Pyrazoline derivatives useful for the treatment of cancer” (LABORATORIOS DEL DR. ESTEVE S.A., priority 2004, published 2007):
# Key:
# human recombinant COX-2 = molecular target: T1, human recombinant COX-2 (Homo sapiens, UniProt P35354); assay: Cyclooxygenase enzyme assay (TLC method), COX-2; type: biochemical; conditions: human recombinant COX-2, preincubation 90-120 min, [1-14C] arachidonic acid; read-out: IC50 COX-2, inhibition of cyclooxygenase activity
# T1 construct: purchased Oxford Biomedical Research Inc
# T1 sequence (P35354 18-604): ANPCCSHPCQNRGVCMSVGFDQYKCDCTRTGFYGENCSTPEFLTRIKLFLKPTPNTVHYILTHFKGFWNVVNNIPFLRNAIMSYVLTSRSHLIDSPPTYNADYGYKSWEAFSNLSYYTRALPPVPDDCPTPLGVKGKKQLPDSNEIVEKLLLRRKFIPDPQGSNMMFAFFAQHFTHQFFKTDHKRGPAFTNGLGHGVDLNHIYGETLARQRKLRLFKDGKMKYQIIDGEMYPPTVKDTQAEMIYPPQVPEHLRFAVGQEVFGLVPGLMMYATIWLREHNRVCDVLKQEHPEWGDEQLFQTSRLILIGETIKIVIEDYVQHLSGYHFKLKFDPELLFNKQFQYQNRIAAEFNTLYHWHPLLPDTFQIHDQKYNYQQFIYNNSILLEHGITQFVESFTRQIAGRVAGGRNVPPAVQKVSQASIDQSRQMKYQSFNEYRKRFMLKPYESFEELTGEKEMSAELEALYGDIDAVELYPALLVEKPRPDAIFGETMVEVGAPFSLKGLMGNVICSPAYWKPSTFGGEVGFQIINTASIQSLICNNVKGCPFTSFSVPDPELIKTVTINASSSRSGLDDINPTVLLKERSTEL
# Method: The compounds of formula I are potent inhibitors of COX-2. […] The resulting radiolabeled prostanoid compounds, i.e., the products of COX-2 reaction with arachidonic acid, were quantified.
# Cyclooxygenase activity of ovine COX-1 (Oxford Biomedical Research Inc.) and human recombinant COX-2 (Oxford Biomedical Research Inc.) was assayed by a thin layer chromatography (TLC) method as follows. All inhibitors were dissolved in dimethyl sulfoxide to a stock solution of 5 mM. Human recombinant COX-2 (3 units) or ovine COX-1 (15 units) was incubated with inhibitors at several concentrations in a solution containing 100 mM Tris-HCl, pH7.8, 500 μM phenol and hematin for 90 to 120 minutes at room temperature (24° C.). In controls, equal volumes of DMSO without drug were added to the incubation mixture. After incubation for 90-120 minutes, [1-^14C] arachidonic acid (50 μM, 51 mCi/mmol) (DuPont NEN) was added and incubated at 37° C. for 2 minutes. The reaction was terminated by extraction with 1 ml of ethyl acetate. The ethyl acetate layer was transferred into a fresh tube and evaporated to dryness in a Speedvac vacuum dryer. […] Radiolabeled prostanoid compounds (the products of COX enzymatic reaction with radiolabeled arachidonic acid substrate) were quantitated with a radioactivity scanner (Fuji, Phosphorimager). […]
# ovine COX-1 = molecular target: T2, ovine COX-1 (Ovis aries, UniProt P05979); assay: Cyclooxygenase enzyme assay (TLC method), COX-1; type: biochemical; conditions: ovine COX-1, preincubation 90-120 min, [1-14C] arachidonic acid; read-out: IC50 COX-1, inhibition of cyclooxygenase activity
# T2 construct: purchased Oxford Biomedical Research Inc
# T2 sequence (P05979 25-600): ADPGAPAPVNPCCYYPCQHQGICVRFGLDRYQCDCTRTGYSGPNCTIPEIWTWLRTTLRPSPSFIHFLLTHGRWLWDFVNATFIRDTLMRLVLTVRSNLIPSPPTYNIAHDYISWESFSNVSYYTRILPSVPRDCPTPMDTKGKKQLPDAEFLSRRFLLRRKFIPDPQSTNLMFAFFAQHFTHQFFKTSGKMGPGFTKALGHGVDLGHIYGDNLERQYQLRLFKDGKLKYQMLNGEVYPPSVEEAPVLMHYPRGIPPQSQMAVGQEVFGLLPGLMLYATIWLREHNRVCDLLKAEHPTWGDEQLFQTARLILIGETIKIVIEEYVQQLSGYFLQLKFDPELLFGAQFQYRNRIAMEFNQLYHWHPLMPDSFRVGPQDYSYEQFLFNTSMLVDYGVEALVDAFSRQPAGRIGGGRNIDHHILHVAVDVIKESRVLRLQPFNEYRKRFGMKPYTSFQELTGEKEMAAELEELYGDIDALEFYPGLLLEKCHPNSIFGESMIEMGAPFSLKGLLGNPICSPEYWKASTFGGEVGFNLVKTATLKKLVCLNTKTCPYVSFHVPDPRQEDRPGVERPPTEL
# Method: Cyclooxygenase activity of ovine COX-1 (Oxford Biomedical Research Inc.) and human recombinant COX-2 (Oxford Biomedical Research Inc.) was assayed by a thin layer chromatography (TLC) method as follows. All inhibitors were dissolved in dimethyl sulfoxide to a stock solution of 5 mM. Human recombinant COX-2 (3 units) or ovine COX-1 (15 units) was incubated with inhibitors at several concentrations in a solution containing 100 mM Tris-HCl, pH7.8, 500 μM phenol and hematin for 90 to 120 minutes at room temperature (24° C.). In controls, equal volumes of DMSO without drug were added to the incubation mixture. After incubation for 90-120 minutes, [1-^14C] arachidonic acid (50 μM, 51 mCi/mmol) (DuPont NEN) was added and incubated at 37° C. for 2 minutes. The reaction was terminated by extraction with 1 ml of ethyl acetate. The ethyl acetate layer was transferred into a fresh tube and evaporated to dryness in a Speedvac vacuum dryer. The contents of the tubes were reconstituted in […] of ethyl acetate and spotted on a TLC plate (J. T. Baker, Phillipsburg, N.J.) and developed in a mobile phase containing chloroform/methanol (95:5) at 4° C. Radiolabeled prostanoid compounds (the products of COX enzymatic reaction with radiolabeled arachidonic acid substrate) were quantitated with a radioactivity scanner (Fuji, Phosphorimager). […]
# DLD-1 cells = assay: Soft agar assay, colony growth of DLD-1 cells; type: cell-based, human; conditions: highest concentration tested (range 10 μM to 75 μM), one dose, stained after 20 days, versus untreated control cells
# Method: The Example 1 and 24 compounds were compared to the COX-2 inhibitor celecoxib in inhibiting the growth of DLD-1 cells in soft agar. DLD-1 cells are human colorectal carcinoma cells that overexpress COX-2. DLD-1 cells grow in soft agar and form tumors in nude mice. The soft agar assay was performed as follows. A layer of bottom agar ([…]) was placed onto 60 mm^2 tissue culture dishes. The tumor cells were trypsinized from normal growth flasks while in exponential growth. The cells were counted by using a hemacytometer and 1.0×10^5 cells were placed into the top agar mixture containing growth medium, 4% noble agar and various concentrations of drugs. The concentration range was normally between 10 μM to 75 μM. The cells were not refed during the assay system; therefore, the cells were treated with one dose of the agents. The plates were stained 20 days later with a 0.05% (w/v) nitroblue tetrazolium solution (which stains only viable cells) for 48 hours. The results are shown in FIG. 1, the y-axis being the percent of cell colonies remaining in comparison to untreated control cells.
IC50 (human recombinant COX-2) [nM],IC50 (ovine COX-1) [nM],Structure (SMILES),inhibition of DLD-1 cell colony growth in soft agar (DLD-1 cells) [%]
100,> 100000,"NS(=O)(=O)c1ccc(N2N=C(C(F)(F)F)CC2c2ccccc2)cc1 (stereo not drawn) [Example 1, 1-(4-sulfamylphenyl)-3-trifluoromethyl-5-phenyl-2-pyrazoline]",100
78,> 100000,"NS(=O)(=O)c1ccc(N2N=C(C(F)(F)F)CC2c2c[nH]c3ccccc23)cc1 (stereo not drawn) [Example 24, 1-(4-sulfamylphenyl)-3-trifluoromethyl-5-(3-indolyl)-2-pyrazoline]",100
